Measured values as given in ChEMBL document CHEMBL1201862, “PubChem BioAssay data set” (2004).
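Exposure lasted 48 hours, with cells grown in 96-well plates and compounds tested at five concentrations. GI50 is the concentration that inhibits growth by half.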 Calls of active or inactive are those of the source. Cut-off read from the data, not from the text of the source: active = GI50 up to about 1.1 µM and inactive = higher.

Assays:
Experiment in all cases: NCI-60 cell line screen, 48 h
ACHN = system: ACHN
RXF 393 = system: RXF 393
XF498 = system: XF498
HCT-15 = system: HCT-15
HT-29 = system: HT-29
M14 = system: M14
HCT-116 = system: HCT-116
HOP-62 = system: HOP-62
UO-31 = system: UO-31
SF-268 = system: SF-268
U-251 = system: U-251
NCI-H522 = system: NCI-H522
SK-MEL-2 = system: SK-MEL-2
EKVX = system: EKVX
HOP-92 = system: HOP-92
DMS-273 = system: DMS-273
MOLT-4 = system: MOLT-4
786-0 = system: 786-0
DLD-1 = system: DLD-1
SF-295 = system: SF-295
A549 = system: A549
TK-10 = system: TK-10
SK-MEL-28 = system: SK-MEL-28
IGROV-1 = system: IGROV-1
SNB-78 = system: SNB-78
OVCAR-3 = system: OVCAR-3
OVCAR-8 = system: OVCAR-8
HOP-18 = system: HOP-18
A498 = system: A498
SK-MEL-5 = system: SK-MEL-5
CCRF-CEM = system: CCRF-CEM
UACC-62 = system: UACC-62
OVCAR-4 = system: OVCAR-4
SF-539 = system: SF-539
OVCAR-5 = system: OVCAR-5
SNB-19 = system: SNB-19
CAKI-1 = system: CAKI-1
UACC-257 = system: UACC-257
M19-MEL = system: M19-MEL
RXF 631 = system: RXF 631
NCI-H460 = system: NCI-H460
NCI-H23 = system: NCI-H23
SN12C = system: SN12C
SW-620 = system: SW-620
K562 = system: K562
SK-OV-3 = system: SK-OV-3
LXFL 529 = system: LXFL 529
KM-20L2 = system: KM-20L2
HL-60 = system: HL-60
RPMI-8226 = system: RPMI-8226
COLO 205 = system: COLO 205
KM12 = system: KM12
LOX IMVI = system: LOX IMVI
Malme-3M = system: Malme-3M
DMS-114 = system: DMS-114
SNB-75 = system: SNB-75
HCC 2998 = system: HCC 2998
NCI-H226 = system: NCI-H226
SR = system: SR

In the case of `Cn1c2c(c3ccccc31)CCN(CCCCN1CCCCC1)C2=O`, the GI50 (ACHN) is reported as > 100 µM (inactive), the GI50 (RXF 393) is reported as > 100 µM (inactive) and the GI50 (XF498) is reported as > 100 µM (inactive). The GI50 (HCT-15) was greater than 100 µM, the GI50 (HT-29) was 61 µM (inactive) and the GI50 (M14) was 99.1 µM (inactive). The GI50 (HCT-116) was 84.5 µM (inactive), the GI50 (HOP-62) was > 100 µM (inactive) and the GI50 (UO-31) was > 100 µM (inactive). For the same molecule, the GI50 (SF-268) was 51.1 µM (inactive), the GI50 (U-251) was > 100 µM (inactive) and the GI50 (NCI-H522) was > 100 µM (inactive). For the same molecule, the GI50 (SK-MEL-2) was > 100 µM (inactive), the GI50 (EKVX) was > 100 µM (inactive) and the GI50 (HOP-92) was > 100 µM (inactive). For the same molecule, the GI50 (DMS-273) was > 100 µM (inactive), the GI50 (MOLT-4) was > 100 µM (inactive) and the GI50 (786-0) was > 100 µM (inactive). For the same molecule, the GI50 (DLD-1) was > 100 µM (inactive), the GI50 (SF-295) was > 100 µM (inactive) and the GI50 (A549) was > 100 µM (inactive). The GI50 (TK-10) was > 100 µM (inactive), the GI50 (SK-MEL-28) was 16.8 µM (inactive) and the GI50 (IGROV-1) was > 100 µM (inactive). The GI50 (SNB-78) was 43.1 µM (inactive), the GI50 (OVCAR-3) was > 100 µM (inactive) and the GI50 (OVCAR-8) was > 100 µM (inactive). The GI50 (HOP-18) was > 100 µM (inactive), the GI50 (A498) was > 100 µM (inactive) and the GI50 (SK-MEL-5) was > 100 µM (inactive). The GI50 (CCRF-CEM) was > 100 µM (inactive), the GI50 (UACC-62) was 28.3 µM (inactive) and the GI50 (OVCAR-4) was > 100 µM (inactive). For the same molecule, the GI50 (SF-539) was > 100 µM (inactive), the GI50 (OVCAR-5) was > 100 µM (inactive) and the GI50 (SNB-19) was > 100 µM (inactive). For the same molecule, the GI50 (CAKI-1) was > 100 µM (inactive), the GI50 (UACC-257) was 62.7 µM (inactive) and the GI50 (M19-MEL) was 60.1 µM (inactive). The GI50 (RXF 631) was > 100 µM (inactive), the GI50 (NCI-H460) was > 100 µM (inactive) and the GI50 (NCI-H23) was > 100 µM (inactive). For the same molecule, the GI50 (SN12C) was > 100 µM (inactive), the GI50 (SW-620) was > 100 µM (inactive) and the GI50 (K562) was > 100 µM (inactive). For the same molecule, the GI50 (SK-OV-3) was > 100 µM (inactive), the GI50 (LXFL 529) was > 100 µM (inactive) and the GI50 (KM-20L2) was > 100 µM (inactive). For the same molecule, the GI50 (HL-60) was > 100 µM (inactive), the GI50 (RPMI-8226) was > 100 µM (inactive) and the GI50 (COLO 205) was > 100 µM (inactive).

For `CCOC1=C2N=C(Cc3ccc(F)cc3)NC2C(=O)c2ccccc21` (stereo not given), the GI50 (ACHN) was 14 µM (inactive), the GI50 (RXF 393) was 18.3 µM (inactive) and the GI50 (XF498) was > 10 µM (inactive). For the same molecule, the GI50 (HT-29) was 21.1 µM (inactive), the GI50 (M14) was 25.5 µM (inactive) and the GI50 (HCT-116) was > 10 µM (inactive). The GI50 (KM12) was 27.5 µM (inactive), the GI50 (HOP-62) was 58.9 µM (inactive) and the GI50 (UO-31) was 4.69 µM (inactive). The GI50 (U-251) was 33 µM (inactive), the GI50 (NCI-H522) was 8.67 µM (inactive) and the GI50 (SK-MEL-2) was 17.6 µM (inactive). For the same molecule, the GI50 (EKVX) was 23.2 µM (inactive), the GI50 (HOP-92) was 10.7 µM (inactive) and the GI50 (DMS-273) was 9.71 µM (inactive). For the same molecule, the GI50 (MOLT-4) was 17.5 µM (inactive), the GI50 (786-0) was 20.8 µM (inactive) and the GI50 (DLD-1) was 27 µM (inactive). For the same molecule, the GI50 (TK-10) was 32.6 µM (inactive), the GI50 (SK-MEL-28) was 27.5 µM (inactive) and the GI50 (IGROV-1) was 66.7 µM (inactive). The GI50 (SNB-78) was 69 µM (inactive), the GI50 (OVCAR-3) was 18.6 µM (inactive) and the GI50 (OVCAR-8) was 20.6 µM (inactive). For the same molecule, the GI50 (A498) was 21.6 µM (inactive), the GI50 (LOX IMVI) was 22.2 µM (inactive) and the GI50 (CCRF-CEM) was 8.26 µM (inactive). The GI50 (UACC-62) was 22.1 µM (inactive), the GI50 (Malme-3M) was 11.5 µM (inactive) and the GI50 (DMS-114) was 18.5 µM (inactive). The GI50 (SF-539) was 13.3 µM (inactive), the GI50 (OVCAR-5) was 45.4 µM (inactive) and the GI50 (UACC-257) was 7.91 µM (inactive). The GI50 (M19-MEL) was 9.44 µM (inactive), the GI50 (RXF 631) was 15.1 µM (inactive) and the GI50 (NCI-H460) was 12.6 µM (inactive). The GI50 (SNB-75) was 15.7 µM (inactive), the GI50 (NCI-H23) was 18.3 µM (inactive) and the GI50 (HCC 2998) was 25.8 µM (inactive). For the same molecule, the GI50 (K562) was 17.9 µM (inactive), the GI50 (SK-OV-3) was 38.2 µM (inactive) and the GI50 (LXFL 529) was 25.5 µM (inactive). For the same molecule, the GI50 (KM-20L2) was 40.3 µM (inactive), the GI50 (HL-60) was 4.68 µM (inactive) and the GI50 (RPMI-8226) was 11.6 µM (inactive). The GI50 (COLO 205) was 23.3 µM (inactive).

For `Cc1cc(C)c(C(=O)/C(=C/c2ccccc2)c2ccccc2)c(C)c1`, the GI50 (ACHN) was 40.7 µM (inactive), the GI50 (RXF 393) was 46.2 µM (inactive) and the GI50 (XF498) was 19.2 µM (inactive). For the same molecule, the GI50 (HCT-15) was 20.6 µM, the GI50 (HT-29) was 28.2 µM (inactive) and the GI50 (M14) was 49.2 µM (inactive). The GI50 (NCI-H226) was 50.9 µM (inactive), the GI50 (HCT-116) was 34.8 µM (inactive) and the GI50 (KM12) was 55.2 µM (inactive). The GI50 (HOP-62) was > 100 µM (inactive), the GI50 (UO-31) was 56.8 µM (inactive) and the GI50 (SF-268) was 76.2 µM (inactive). The GI50 (U-251) was 39.9 µM (inactive), the GI50 (NCI-H522) was 26.2 µM (inactive) and the GI50 (SK-MEL-2) was 11.3 µM (inactive). For the same molecule, the GI50 (EKVX) was 72.8 µM (inactive), the GI50 (HOP-92) was 32.8 µM (inactive) and the GI50 (MOLT-4) was 29 µM (inactive). For the same molecule, the GI50 (786-0) was 56.2 µM (inactive), the GI50 (DLD-1) was > 100 µM (inactive) and the GI50 (SF-295) was 51.6 µM (inactive). The GI50 (A549) was 38.8 µM (inactive), the GI50 (TK-10) was 93.5 µM (inactive) and the GI50 (SR) was 36.6 µM (inactive). For the same molecule, the GI50 (SK-MEL-28) was > 100 µM (inactive), the GI50 (IGROV-1) was 86.3 µM (inactive) and the GI50 (OVCAR-3) was 51.4 µM (inactive). The GI50 (OVCAR-8) was 46.5 µM (inactive), the GI50 (HOP-18) was > 100 µM (inactive) and the GI50 (SK-MEL-5) was > 100 µM (inactive). The GI50 (CCRF-CEM) was 35.1 µM (inactive), the GI50 (UACC-62) was > 100 µM (inactive) and the GI50 (OVCAR-4) was 57.9 µM (inactive). For the same molecule, the GI50 (Malme-3M) was 18.2 µM (inactive), the GI50 (DMS-114) was 35.6 µM (inactive) and the GI50 (SF-539) was 57.5 µM (inactive). The GI50 (SNB-19) was > 100 µM (inactive), the GI50 (CAKI-1) was 36.8 µM (inactive) and the GI50 (UACC-257) was 28.4 µM (inactive). For the same molecule, the GI50 (M19-MEL) was 39.9 µM (inactive), the GI50 (RXF 631) was 29.9 µM (inactive) and the GI50 (NCI-H460) was 42.4 µM (inactive). The GI50 (SNB-75) was 82.2 µM (inactive), the GI50 (NCI-H23) was 40 µM (inactive) and the GI50 (SN12C) was 41.7 µM (inactive). The GI50 (SW-620) was 60 µM (inactive), the GI50 (K562) was 36.3 µM (inactive) and the GI50 (SK-OV-3) was > 100 µM (inactive). For the same molecule, the GI50 (LXFL 529) was 34.8 µM (inactive), the GI50 (KM-20L2) was 42.2 µM (inactive) and the GI50 (HL-60) was 27.5 µM (inactive). The GI50 (RPMI-8226) was 37.1 µM (inactive) and the GI50 (COLO 205) was 91.6 µM (inactive).
